{"source": "patent US20110319379A1", "about": "“Substituted Indazole Amides And Their Use As Glucokinase Activators” (priority 2009, published 2011)", "data": [{"target": "T1, recombinant human glucokinase (Homo sapiens, UniProt P35557)", "T1 construct": "Full-length glucokinase (beta cell isoform) was His-tagged at the N-terminus and purified by a Ni column followed by size exclusion chromatography as described above; His tag; made in house; host or cells: E. coli BL21(DE3), vector pBCGK", "T1 sequence (P35557 1-465)": "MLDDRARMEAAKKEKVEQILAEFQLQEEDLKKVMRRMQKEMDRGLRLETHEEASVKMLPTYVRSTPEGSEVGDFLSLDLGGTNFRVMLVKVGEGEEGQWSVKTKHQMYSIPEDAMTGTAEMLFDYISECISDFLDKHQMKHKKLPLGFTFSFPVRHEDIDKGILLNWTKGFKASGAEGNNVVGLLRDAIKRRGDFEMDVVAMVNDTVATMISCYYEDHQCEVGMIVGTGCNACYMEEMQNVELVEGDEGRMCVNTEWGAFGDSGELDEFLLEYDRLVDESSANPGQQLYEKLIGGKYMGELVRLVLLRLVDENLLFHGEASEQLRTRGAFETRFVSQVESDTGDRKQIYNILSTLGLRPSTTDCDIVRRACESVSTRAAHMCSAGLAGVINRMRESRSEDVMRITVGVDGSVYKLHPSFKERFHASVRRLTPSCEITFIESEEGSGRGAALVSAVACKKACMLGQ", "assay": "Assay 2: Evaluating Activator Potency in a Matrix Assay at Multiple Glucose Concentrations", "assay_type": "biochemical", "conditions": "Assay 2 matrix assay; 16 glucose concentrations; intrinsic EC50 = concentration affording a 50% reduction in the enzyme's Km (for glucose); read-out: Glucokinase EC50", "procedure": "(§1) Representative compounds of this invention were evaluated in biochemical assays (Assay 1 or Assay 2) to characterize their glucokinase activation properties.\n(§2) The recombinant human glucokinase protein utilized in both assays was prepared and purified as described below.\n(§3) BL21(DE3) cells (Invitrogen Corporation, Carlsbad, Calif.) containing pBCGK (C or N H is) vector were grown at 37° C. (in 2XYT) until the OD600 was between 0.6-1.0. Expression was induced by addition of isopropylthiogalactoside to a final concentration of 0.1-0.2 mM to the cells which were then incubated overnight at 23° C. The next day, cells were harvested via centrifugation at 5000 rpm for 15 minutes at 4° C. The cell pellet was stored at −80° C. for future purification.\n(§4) Beta Cell Glucokinase His-Taq Purification Conditions: A Ni-NTA (Quigan, Germantown, Md.) column (15-50 mL) was used for separation. Two buffers were prepared, 1) a lysis/nickel equilibration and wash buffer and 2) a nickel elution buffer. The lysis/equilibration/wash buffer was prepared as such: 25 mM HEPES buffer at pH 7.5, 250 mM NaCl, 20 mM imidazole, and 14 mM β-mercaptoethanol as final concentrations. The elution buffer was prepared as such: 25 mM HEPES at pH 7.5, 250 mM NaCl, 400 mM imidazole, and 14 mM β-mercaptoethanol as final concentrations. The buffers were each filtered with a 0.22 μm filter prior to use. The cell pellet (1 L culture) was resuspended in 300 mL of the lysis/equilibration buffer. The cells were then lysed (3 times) with a Microfluidics Model 110Y microfluidizer (Microfluidics Corporation, Newton, Mass.). The slurry was centrifuged with a Beckman Coulter Model LE-80K ultracentrifuge (Beckman Coulter, Fullerton, Calif.) at 40,000 rpm for 45 minutes at 4° C. The supernatant was transferred to a chilled flask. A volume of 20 μl was saved for gel analysis. A Pharmacia AKTA (GMI, Inc., Ramsey, Minn.) purification system was used for separation. The prime lines were purged with lysis/equilibration buffer. The Ni-NTA column was equilibrated with 200 mL of the lysis/equilibration buffer at a flow rate of 5 mL/minute. The supernantant was loaded over the column at 4 mL/minute and the flow-through was collected in a flask. The unbound proteins were washed with lysis/equilibration buffer at a flow rate of 5 mL/minute until the ultraviolet reaches baseline. The protein was then eluted from the column with the imidazole elution buffer via imidazole gradient 20 mM to 400 mM over 320 mL. The column was then stripped of any additional protein with 80 mL of the elution buffer. The elution fractions were each 8 mL, for a total yield of 50 samples. Fractions were analyzed by sodium dodecyl sulfate polyacrylamide (SDS-PAGE) and the fractions containing protein of interest were pooled and concentrated to 10 mL using ultrafiltration cell with a 10,000 molecular weight cut-off (MWCO) Millipore membrane (Sigma-Aldrich, St. Louis, Mo.) under nitrogen gas (60 psi). Protein was further purified by size exclusion chromatography (SEC) using a […] (320 mL) (Amersham Pharmacia, Uppsala, Sweden). SEC was equilibrated with 450 mL sizing buffer containing 25 mM HEPES pH 7.0, 50 mM NaCl, and 5 mM dithiothreitol. Concentrated protein was then loaded over SEC and elution with 400 mL sizing buffer was performed overnight at 0.5 mL/minute. The elution fractions were 5 mL each. The fractions were analyzed by SDS-PAGE and protein containing fractions were pooled. Concentration was measured using Bradford Assay/BSA Standard. Purified protein was stored in small aliquots at −80° C.\n(§5) Assay 2: Evaluating Activator Potency in a Matrix Assay at Multiple Glucose Concentrations\n(§6) Utilizing an adaptation of this method, representative compounds of the current invention were evaluated at 22 different concentrations and 16 different glucose concentrations in a coupled enzyme assay system that detects glucokinase activity via depletion of β-NADH.", "units": {"EC50": "nM"}, "values": [{"smiles": "CCc1cnc(NC(=O)c2cc(Oc3ccc(S(N)(=O)=O)cc3)c3cn(CC)nc3c2)cn1", "note": "[Example 1CU, 4-[4-(aminosulfonyl)phenoxy]-2-ethyl-N-(5-ethylpyrazin-2-yl)-2H-indazole-6-carboxamide]", "EC50": 1370}, {"smiles": "COc1cnc(NC(=O)c2cc(Oc3cnc(C(=O)N(C)C)c(F)c3)c3cn(C)nc3c2)cn1", "note": "[Example 1BE, 4-(6-(dimethylcarbamoyl)-5-fluoropyridin-3-yloxy)-N-(5-methoxypyrazin-2-yl)-2-methyl-2H-indazole-6-carboxamide]", "EC50": 456}, {"smiles": "CCc1cnc(NC(=O)c2cc(Oc3ccc(S(C)(=O)=O)cc3)c3cn(CC)nc3c2)cn1", "note": "[Example 1BH, 2-ethyl-N-(5-ethylpyrazin-2-yl)-4-[4-(methylsulfonyl)phenoxy]-2H-indazole-6-carboxamide]", "EC50": 536}, {"smiles": "CCn1cc2c(Oc3ccc(S(C)(=O)=O)cc3)cc(C(=O)Nc3ccn(CC(N)=O)n3)cc2n1", "note": "[Example 1CG, N-[1-(2-amino-2-oxoethyl)-1H-pyrazol-3-yl]-2-ethyl-4-[4-(methylsulfonyl)phenoxy]-2H-indazole-6-carboxamide]", "EC50": 1490}, {"smiles": "Cc1ccc(NC(=O)c2cc(Oc3ccc(S(C)(=O)=O)cc3C(F)(F)F)c3cn(C)nc3c2)nc1", "note": "[Example 1AR, 2-methyl-N-(5-methylpyridin-2-yl)-4-[4-(methylsulfonyl)-2-(trifluoromethyl)phenoxy]-2H-indazole-6-carboxamide]", "EC50": 545}, {"smiles": "CCn1cc2c(Oc3cnc(NC(C)=O)cn3)cc(C(=O)Nc3ccc(C)cn3)cc2n1", "note": "[Example 1CM, 4-(5-acetamidopyrazin-2-yloxy)-2-ethyl-N-(5-methylpyridin-2-yl)-2H-indazole-6-carboxamide]", "EC50": 2450}, {"smiles": "Cn1cc(NC(=O)c2cc(Oc3ccc(S(C)(=O)=O)cc3)c3cn(C)nc3c2)nn1", "note": "[Example 1CJ, 2-methyl-4-[4-(methylsulfonyl)phenoxy]-N-(1-methyl-1H-1,2,3-triazol-4-yl)-2H-indazole-6-carboxamide]", "EC50": 282}, {"smiles": "CCn1ccc(NC(=O)c2cc(Oc3ccc(S(C)(=O)=O)cc3)c3cn(CC)nc3c2)n1", "note": "[Example 1BM, 2-ethyl-N-(1-ethyl-1H-pyrazol-3-yl)-4-[4-(methylsulfonyl)phenoxy]-2H-indazole-6-carboxamide]", "EC50": 1900}, {"smiles": "CCn1cc2c(Oc3ccc(S(C)(=O)=O)cc3)cc(C(=O)Nc3cnc(C)cn3)cc2n1", "note": "[Example 1CB, 2-ethyl-N-(5-methylpyrazin-2-yl)-4-[4-(methylsulfonyl)phenoxy]-2H-indazole-6-carboxamide]", "EC50": 537}, {"smiles": "CCS(=O)(=O)N(C)c1cnc(Oc2cc(C(=O)Nc3ccc(C)cn3)cc3nn(C)cc23)cn1", "note": "[Example 1AY, 4-({5-[(ethylsulfonyl)(methyl)amino]pyrazin-2-yl}oxy)-2-methyl-N-(5-methylpyridin-2-yl)-2H-indazole-6-carboxamide]", "EC50": 673}, {"smiles": "CN(C)S(=O)(=O)c1ccc(Oc2cc(C(=O)Nc3ccn(C)n3)cc3nn(C)cc23)cn1", "note": "[Example 1AM, 4-({6-[(dimethylamino)sulfonyl]pyridin-3-yl}oxy)-2-methyl-N-(1-methyl-1H-pyrazol-3-yl)-2H-indazole-6-carboxamide]", "EC50": 3880}, {"smiles": "CCn1cc2c(Oc3cnc(C(=O)N4CCOCC4)cn3)cc(C(=O)Nc3ccc(C)cn3)cc2n1", "note": "[Example 1CP, 2-ethyl-N-(5-methylpyridin-2-yl)-4-(5-(morpholine-4-carbonyl)pyrazin-2-yloxy)-2H-indazole-6-carboxamide]", "EC50": 2280}, {"smiles": "Cc1cnc(NC(=O)c2cc(Oc3cnc(C(=O)N4CCC4)c(F)c3)c3cn(C)nc3c2)cn1", "note": "[Example 1BC, 4-(6-(azetidine-1-carbonyl)-5-fluoropyridin-3-yloxy)-2-methyl-N-(5-methylpyrazin-2-yl)-2H-indazole-6-carboxamide]", "EC50": 368}, {"smiles": "Cc1cnc(NC(=O)c2cc(Oc3ccc(C(=O)N(C)C)cc3)c3cn(C)nc3c2)cn1", "note": "[Example 1AG, 4-(4-(dimethylcarbamoyl)phenoxy)-2-methyl-N-(5-methylpyrazin-2-yl)-2H-indazole-6-carboxamide]", "EC50": 713}, {"smiles": "CCn1cc2c(Oc3ccc(S(C)(=O)=O)cc3)cc(C(=O)Nc3ccc(CC(N)=O)cn3)cc2n1", "note": "[Example 1CE, N-[5-(2-amino-2-oxoethyl)pyridin-2-yl]-2-ethyl-4[4-(methylsulfonyl)phenoxy]-2H-indazole-6-carboxamide]", "EC50": 558}, {"smiles": "CCn1cc2c(Oc3ccc(S(N)(=O)=O)cc3)cc(C(=O)Nc3cnc(OC)cn3)cc2n1", "note": "[Example 1CS, 4-[4-(aminosulfonyl)phenoxy]-2-ethyl-N-(5-methoxypyrazin-2-yl)-2H-indazole-6-carboxamide]", "EC50": 418}, {"smiles": "CCn1cc2c(Oc3ccc(S(C)(=O)=O)cc3)cc(C(=O)Nc3ccn(C)n3)cc2n1", "note": "[Example 1CC, 2-ethyl-N-(1-methyl-1H-pyrazol-3-yl)-4-[4-(methylsulfonyl)phenoxy]-2H-indazole-6-carboxamide]", "EC50": 1210}, {"smiles": "CCn1cc2c(Oc3cnc(C(=O)N(C)C)nc3)cc(C(=O)Nc3ccc(C)cn3)cc2n1", "note": "[Example 1BD, 4-(2-(dimethylcarbamoyl)pyrimidin-5-yloxy)-2-ethyl-N-(5-methylpyridin-2-yl)-2H-indazole-6-carboxamide]", "EC50": 383}, {"smiles": "CCn1cc2c(Oc3cnc(C(=O)N4CCC4)cn3)cc(C(=O)Nc3cnn(C)n3)cc2n1", "note": "[Example 1BX, 4-(5-(azetidine-1-carbonyl)pyrazin-2-yloxy)-2-ethyl-N-(2-methyl-2H-1,2,3-triazol-4-yl)-2H-indazole-6-carboxamide]", "EC50": 15100}, {"smiles": "CCn1cc2c(Oc3ccc4c(c3)CCS4(=O)=O)cc(C(=O)Nc3ccc(C)cn3)cc2n1", "note": "[Example 1AW, 4-[(1,1-dioxido-2,3-dihydro-1-benzothien-5-yl)oxy]-2-ethyl-N-(5-methylpyridin-2-yl)-2H-indazole-6-carboxamide]", "EC50": 986}, {"smiles": "CCOc1cnc(NC(=O)c2cc(Oc3ccc(S(C)(=O)=O)cc3)c3cn(CC)nc3c2)cn1", "note": "[Example 1BG, N-(5-ethoxypyrazin-2-yl)-2-ethyl-4-[4-(methylsulfonyl)phenoxy]-2H-indazole-6-carboxamide]", "EC50": 203}, {"smiles": "CCn1cc2c(Oc3ccc(S(C)(=N)=O)cc3)cc(C(=O)Nc3ccn(C)n3)cc2n1", "note": "(centres unmarked) [Example 1CY, 2-ethyl-N-(1-methyl-1H-pyrazol-3-yl)-4-[4-(S-methylsulfonimidoyl)phenoxy]-2H-indazole-6-carboxamide]", "EC50": 2470}]}, {"target": "T1, recombinant human glucokinase", "assay": "Assay 2: Evaluating Activator Potency in a Matrix Assay at Multiple Glucose Concentrations", "assay_type": "biochemical", "conditions": "Glucokinase EC50, Assay 2 matrix assay; 16 glucose concentrations; intrinsic EC50 = concentration affording a 50% reduction in the enzyme's Km (for glucose)", "procedure": "as §1, §2, §3, §4, §5, §6", "units": {"EC50": "nM"}, "values": [{"smiles": "Cc1cnc(NC(=O)c2cc(Oc3ccc(S(=O)(=O)N(C)C)cc3)c3cn(C)nc3c2)cn1", "note": "[Example 1AI, 4-{4-[(dimethylamino)sulfonyl]phenoxy}-2-methyl-N-(5-methylpyrazin-2-yl)-2H-indazole-6-carboxamide]", "EC50": 431}]}]}
